These results are taken from patent US11981655B1, “3-(4,5-diphenyl-2-(pyridin-3-yl)-1H-imidazol-1-yl)-N,N-dimethylpropan-1-amine as an anticancer compound” (KING FAISAL UNIVERSITY, priority 2023, dated 2024).

As a reminder, the melting point is the temperature, or range, at which the solid turns liquid.

Series [1] concerns human prostate cancer cells (PC3). Briefly: Cytotoxicity by SRB assay, PC3 cells. It is filed as cell-based. The settings on record: 72 h, 0.01 μM to 100 μM. On the procedure:
(§1) The human prostate cancer cells (PC3) and human osteosarcoma cells (MG-63) were obtained from Nawah Scientific Inc. (Mokatam, Cairo, Egypt) and cultured in DMEM (Dulbecco's modified eagle's medium), Gibco, USA, supplemented with fetal bovine serum (FBS) at a concentration of 10% and 100 U/mL of penicillin and streptomycin (PS). The Cells were incubated at 37° C. in a humidified environment that contained 5% CO2.
(§2) Cells were seeded in 96-well plates as aliquots of 100 μL cell suspension and incubated in a complete media for 24 h. Afterward, cells were treated with 2-(1-(2-hydroxypropyl)-4,5-diphenyl-1H-imidazol-2-yl)pyridine at diverse concentrations ranging from 0.01 μM to 100 μM for 72 h. Then, cells were fixed at 4° C. for one hour with 150 μL of 10% trichloroacetic acid (TCA). After washing the cells five times with distilled water, 70 μL of sulforhodamine (SRB) solution (0.4% w/v) was added and incubated for 10 min at room temperature in a dark place. […] Then, 150 μL of Tris pH 10.5 (10 mM) was added, and the absorbance was measured at 540 nm using a BMG LABTECH®-FLUOstar Omega microplate reader (Ortenberg, Germany). Half maximal inhibitory concentrations (IC50) values were calculated for each experiment using GraphPad Prism 6 software. […]
(§3) The inhibition was calculated using the following equation: Inhibition %=100−Average Viability
In general terms: In SRB staining, fixed cells bind dye roughly in proportion to their protein.

Series [2] deals with human osteosarcoma cells (MG-63). Briefly: Cytotoxicity by SRB assay, MG-63 cells. It is filed as cell-based. The settings on record: 72 h, 0.01 μM to 100 μM. On the procedure: as §1, §2, §3

Structures are written as SMILES.

`CN(C)CCCn1c(-c2cccnc2)nc(-c2ccccc2)c1-c1ccccc1` [3-(4,5-Diphenyl-2-(pyridin-3-yl)-1H-imidazol-1-yl)-N,N-dimethylpropan-1-amine] displayed a melting point of 145 to 147 °C. Moreover, the antiproliferative activity entry in series [1] is reported as “excellent antiproliferative activities”. The antiproliferative activity result in series [2] is “excellent antiproliferative activities”.
